Experiments:
Type in all cases: biochemical, Candida maris IFO 10003
[1] = tested on: FPDH; experiment: Behaviors of FPDH against inhibitors (reducing activity measurement with added compounds and metal salts)
[2] = tested on: FPDH; experiment: Oxidation activity of FPDH against various compounds as substrates; settings: substrate 1 mM; 5-(1-(R)-hydroxyethyl)furo[2,3-c]pyridine = 100%; 0.25 mM NAD+, pH 8.0, 30° C.
Experimental: Further, FPDH was examined for oxidation activity against various compounds. The oxidation activity was measured by allowing the reaction to proceed at 30° C. for 3 minutes in 3.0 ml of a reaction mixture containing 1 mM substrate, 0.25 mM NAD^+, 0.3% (vol/vol) dimethyl sulfoxide and 0.05 ml of the enzyme solution in 100 mM phosphate buffer (pH 8.0) and measuring the increase in absorbance at the wavelength 340 nm. These conditions were employed as standard reaction conditions for oxidizing activity substrate measurement. The enzyme activity reducing 1 μmole of NAD^+ to NADH in one minute under these reaction conditions was defined as 1 unit. The data shown in Table 10 are relative activities with the oxidation activity against the substrate 5-(1-(R)-hydroxyethyl)furo[2,3-c]pyridine being taken as 100%.

[3] = tested on: FPDH; experiment: Specificity of FPDH: reducing activity against various carbonyl compounds as substrates; settings: substrate 1 mM; 5-acetylfuro[2,3-c]pyridine = 100%; 0.25 mM NADH, pH 6.5, 30° C.
Experimental: In the practice of the invention, the reducing activity of the enzyme is determined by carrying out the reaction in 3.0 ml of a reactant mixture containing 1 mM substrate, 0.25 mM coenzyme NADH, 0.3% (vol/vol) dimethyl sulfoxide and an enzyme solution in 100 mM phosphate buffer (pH 6.5) at 30° C. for 3 minutes and then measuring the reduction in absorbance at 340 nm.
The term “very low in reducing activity” referring to the specificity means that when the reducing activity against 5-acetylfuro[2,3-c]pyridine is taken as 100%, the reducing activity against the substrate in question is not more than 10%. The term “carbocyclic ketones” means ketones, such as cyclohexanone and cyclopentanone, derived from alicyclic compounds by substituting —C(═O)— for a ring constituent —CH2— thereof.
Hereafter, the reducing activity was measured by allowing the reaction to proceed at 30° C. for 3 minutes in 3.0 ml of a reaction mixture containing 1 mM 5-acetylfuro[2,3-c]pyridine (substrate), 0.25 mM NADH, 0.3% (vol/vol) dimethyl sulfoxide and 0.05 ml of the enzyme solution in 100 mM phosphate buffer (pH 6.5) and measuring the decrease in absorbance at the wavelength 340 nm. These conditions were employed as standard reaction conditions for reducing activity measurement. The enzyme activity oxidizing 1 μmole of NADH to NAD^+ in one minute under these reaction conditions was defined as 1 unit.
The reducing activity of FPDH was examined against various compounds. Activity measurements were conducted under the standard reaction conditions for reducing activity measurement using various carbonyl compounds shown in Table 8 and Table 9 as substrates in lieu of 5-acetylfuro[2,3-c]pyridine. In Table 8 and Table 9, the results are shown in terms of relative activity with the reducing activity when 5-acetylfuro[2,3-c]pyridine was used as the substrate being taken as 100%. As a result, FPDH had reducing activity against ketones and aldehydes but the reducing activity thereof was very low against carbocyclic ketones and the ketone in position α to a carboxyl group.

[4] = inhibitor 1.0 mM, activity without inhibitor = 100%, 1 mM 5-acetylfuro[2,3-c]pyridine, 0.25 mM NADH, pH 6.5, 30° C.
[5] = inhibitor 0.01 mM, activity without inhibitor = 100%, 1 mM 5-acetylfuro[2,3-c]pyridine, 0.25 mM NADH, pH 6.5, 30° C.

O[C@H](CS)[C@H](O)CS (racemic) [Dithiothreitol]
Relative activity [1, 4]: 93%

c1cnc2c(c1)ccc1cccnc12 [1,10-Phenanthroline]
Relative activity [1, 4]: 98%

CC(O)c1ccccn1 (centres unmarked) [1-(2-Pyridyl)ethanol]
Relative activity (oxidation activity) [2]: 23%

CC(O)c1cccnc1 (centres unmarked) [1-(3-Pyridyl)ethanol]
Relative activity (oxidation activity) [2]: 110%

CC(O)c1ccncc1 (centres unmarked) [1-(4-Pyridyl)ethanol]
Relative activity (oxidation activity) [2]: 24%

CC(=O)C1CCCCC1=O (centres unmarked) [1-Acetylcyclohexanone]
Relative activity (reducing activity, Table 8) [3]: 68%

CC(=O)C1CCCC1=O (centres unmarked) [1-Acetylcyclopentanone]
Relative activity (reducing activity, Table 8) [3]: 86%

C=CC(C)O (centres unmarked) [1-Buten-3-ol]
Relative activity (oxidation activity) [2]: 261%

CC(=O)c1cc2ccoc2c(Cl)n1 [1-Chloro-5-acetylfuro[2,3-c]pyridine]
Relative activity (reducing activity, Table 8) [3]: 66%

O=C1CCCc2ccccc21 [1-Tetralone]
Relative activity (reducing activity, Table 9) [3]: 2%

O=C(CCl)c1cccc(Cl)c1 [2,3′-Dichloroacetophenone]
Relative activity (reducing activity, Table 8) [3]: 19%

CC(=O)c1ccco1 [2-Acetylfuran]
Relative activity (reducing activity, Table 8) [3]: 43%

CC(=O)c1ccccn1 [2-Acetylpyridine]
Relative activity (reducing activity, Table 8) [3]: 111%

CC(=O)c1ccc[nH]1 [2-Acetylpyrrole]
Relative activity (reducing activity, Table 8) [3]: 100%

CC(=O)c1nccs1 [2-Acetylthiazole]
Relative activity (reducing activity, Table 8) [3]: 86%

CC(=O)c1cccs1 [2-Acetylthiophene]
Relative activity (reducing activity, Table 8) [3]: 77%

CCC(C)=O [2-Butanone]
Relative activity (reducing activity, Table 8) [3]: 94%

CCCCC(C)=O [2-Hexanone]
Relative activity (reducing activity, Table 8) [3]: 38%

O=C(CO)c1ccccc1 [2-Hydroxyacetophenone]
Relative activity (reducing activity, Table 8) [3]: 54%

CCCC(=O)C(=O)O [2-Keto-n-valeric acid]
Relative activity (reducing activity, Table 9) [3]: 7%

CCC(=O)C(=O)O [2-Ketobutyric acid]
Relative activity (reducing activity, Table 9) [3]: 5%

OCCS [2-Mercaptoethanol]
Relative activity [1, 4]: 94%

CCCCCCC(C)=O [2-Octanone]
Relative activity (reducing activity, Table 8) [3]: 38%

CCCC(C)=O [2-Pentanone]
Relative activity (reducing activity, Table 8) [3]: 67%

O=C1CCc2ccccc2C1 [2-Tetralone]
Relative activity (reducing activity, Table 9) [3]: 0%

CC(=O)c1cccnc1 [3-Acetylpyridine]
Relative activity (reducing activity, Table 8) [3]: 107%

CC(=O)c1ccncc1 [4-Acetylpyridine]
Relative activity (reducing activity, Table 8) [3]: 130%

C=CCC(C)O (centres unmarked) [4-Penten-2-ol]
Relative activity (oxidation activity) [2]: 172%

CC(=O)c1cc2ccoc2cn1 [5-Acetylfuro[2,3-c]pyridine]
Relative activity (reducing activity, Table 8) [3]: 100%

CC=O [Acetaldehyde]
Relative activity (reducing activity, Table 9) [3]: 36%

CC(=O)C(C)O (centres unmarked) [Acetoin]
Relative activity (reducing activity, Table 8) [3]: 43%

CC(C)=O [Acetone]
Relative activity (reducing activity, Table 8) [3]: 40%

CC(=O)c1ccccc1 [Acetophenone]
Relative activity (reducing activity, Table 8) [3]: 88%

CC(=O)CC(C)=O [Acetylacetone]
Relative activity (reducing activity, Table 8) [3]: 123%

CC(=O)c1cnccn1 [Acetylpyrazine]
Relative activity (reducing activity, Table 8) [3]: 133%

O=Cc1ccccc1 [Benzaldehyde]
Relative activity (reducing activity, Table 9) [3]: 94%

CC(=O)CCc1ccccc1 [Benzylacetone]
Relative activity (reducing activity, Table 8) [3]: 96%

CC12CCC(C(=O)C1=O)C2(C)C (centres unmarked) [Camphorquinone]
Relative activity (reducing activity, Table 9) [3]: 3%

[Cl-].[Cl-].[Co+2] [CoCl2]
Relative activity ([1]; pH 6.5): 85%

O=S(=O)([O-])[O-].[Cu+2] [CuSO4]
Relative activity [1, 4]: 103%

O=C1CCCCCC1 [Cycloheptanone]
Relative activity (reducing activity, Table 9) [3]: 4%

O=C1CCCCC1 [Cyclohexanone]
Relative activity (reducing activity, Table 9) [3]: 4%

O=C1CCCC1 [Cyclopentanone]
Relative activity (reducing activity, Table 9) [3]: 3%

O=C(O)c1cc(SSc2ccc([N+](=O)[O-])c(C(=O)O)c2)ccc1[N+](=O)[O-] [DTNB]
Relative activity [1, 5]: 98%

CC(=O)C(C)=O [Diacetyl]
Relative activity (reducing activity, Table 8) [3]: 107%

CCC(=O)CC [Diethyl ketone]
Relative activity (reducing activity, Table 8) [3]: 22%

O=C(O)CN(CCN(CC(=O)O)CC(=O)O)CC(=O)O [EDTA]
Relative activity [1, 4]: 98%

CCOC(=O)C(Cl)C(C)=O (centres unmarked) [Ethyl 2-chloroacetoacetate]
Relative activity (reducing activity, Table 9) [3]: 88%

CCOC(=O)CC(C)=O [Ethyl acetoacetate]
Relative activity (reducing activity, Table 9) [3]: 141%

CCOC(=O)C(C)=O [Ethyl pyruvate]
Relative activity (reducing activity, Table 8) [3]: 133%

[Cl][Hg][Cl] [HgCl2]
Relative activity [1, 4]: 0%

O=C(O)CI [Iodoacetic acid]
Relative activity ([1]; pH 6.5): 80%

COC(=O)CC(C)=O [Methyl acetoacetate]
Relative activity (reducing activity, Table 9) [3]: 128%

CC(=O)CC(C)C [Methyl isobutyl ketone]
Relative activity (reducing activity, Table 8) [3]: 14%

CC(=O)C(C)C [Methyl isopropyl ketone]
Relative activity (reducing activity, Table 8) [3]: 43%

COC(=O)C(C)=O [Methyl pyruvate]
Relative activity (reducing activity, Table 8) [3]: 132%

O=S(=O)([O-])[O-].[Mg+2] [MgSO4]
Relative activity [1, 4]: 81%

[Cl][Mn][Cl] [MnCl2]
Relative activity [1, 4]: 76%

CCN1C(=O)C=CC1=O [N-ethylmaleimide]
Relative activity [1, 4]: 84%

O=C(O)CC(=O)C(=O)O [Oxalacetic acid]
Relative activity (reducing activity, Table 9) [3]: 4%

CCC=O [Propionaldehyde]
Relative activity (reducing activity, Table 9) [3]: 70%

O=Cc1ccccn1 [Pyridine-2-aldehyde]
Relative activity (reducing activity, Table 9) [3]: 54%

O=Cc1cccnc1 [Pyridine-3-aldehyde]
Relative activity (reducing activity, Table 9) [3]: 47%

O=Cc1ccncc1 [Pyridine-4-aldehyde]
Relative activity (reducing activity, Table 9) [3]: 64%

CC(=O)C(=O)O [Pyruvic acid]
Relative activity (reducing activity, Table 9) [3]: 3%

O=c1c(O)c(-c2ccc(O)c(O)c2)oc2cc(O)cc(O)c12 [Quercetin]
Relative activity [1, 5]: 78%

O=S(=O)([O-])[O-].[Zn+2] [ZnSO4]
Relative activity [1, 4]: 74%

CC(=O)c1cccc(Cl)c1 [m-Chloroacetophenone]
Relative activity (reducing activity, Table 8) [3]: 120%

O=Cc1cccc(Cl)c1 [m-Chlorobenzaldehyde]
Relative activity (reducing activity, Table 9) [3]: 111%

CC(=O)c1cccc([N+](=O)[O-])c1 [m-Nitroacetophenone]
Relative activity (reducing activity, Table 8) [3]: 136%

O=Cc1cccc([N+](=O)[O-])c1 [m-Nitrobenzaldehyde]
Relative activity (reducing activity, Table 9) [3]: 103%

[Hg+2] [mercury ion]
Inhibition of the enzyme activity (in words) ([1]; standard reaction conditions for reducing activity measurement): inhibited

CCCC=O [n-Butyr aldehyde]
Relative activity (reducing activity, Table 9) [3]: 123%

CCCCCC=O [n-Hexyl aldehyde]
Relative activity (reducing activity, Table 9) [3]: 71%

CC(=O)c1ccccc1Cl [o-Chloroacetophenone]
Relative activity (reducing activity, Table 8) [3]: 9%

O=Cc1ccccc1Cl [o-Chlorobenzaldehyde]
Relative activity (reducing activity, Table 9) [3]: 0%

O=Cc1ccccc1[N+](=O)[O-] [o-Nitrobenzaldehyde]
Relative activity (reducing activity, Table 9) [3]: 9%

CC(=O)c1ccc(Cl)cc1 [p-Chloroacetophenone]
Relative activity (reducing activity, Table 8) [3]: 88%

O=Cc1ccc(Cl)cc1 [p-Chlorobenzaldehyde]
Relative activity (reducing activity, Table 9) [3]: 104%

O=C(O)c1cc[c]([Hg][Cl])cc1 [p-Chloromercuribenzoic acid]
Relative activity ([1]; inhibitor 0.1 mM, activity without inhibitor = 100%, 1 mM 5-acetylfuro[2,3-c]pyridine, 0.25 mM NADH, pH 6.5, 30° C.): 100%

CC(=O)c1ccc(F)cc1 [p-Fluoroacetophenone]
Relative activity (reducing activity, Table 8) [3]: 88%

CC(=O)c1ccc([N+](=O)[O-])cc1 [p-Nitroacetophenone]
Relative activity (reducing activity, Table 8) [3]: 116%

O=Cc1ccc([N+](=O)[O-])cc1 [p-Nitrobenzaldehyde]
Relative activity (reducing activity, Table 9) [3]: 162%

Source: patent publication US7329518B2, “Enzyme for producing optically active pyridineethanol derivatives” (Kaneka Corporation, priority 1999, dated 2008)
